test: recombinant barcode read abundance after kanamycin selection (control-corrected) (log10(CPM+1)); higher = more efficient recombination; sequences stand for … in AGTGCAGAGAAAATCGGCCAGTTTTCTCTGCCTGCAGTCCGCATGCCGT…AGATTTATGCAGCGGACTGCCTTTCTCCCAAAGTGATAAACCGGACAGTATCATGGACCGGTTTTCCCGGTAATCCGTATTTGCAAGGTTGGTTTCACT; site = the 11-nt target
Summary of the method: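 Recombination efficiency in this pooled E. coli screen uses counts per million of barcodes at recombinant junctions, averaged and corrected against the control. The reported form is log10(CPM+1). Two replicates were plated on chloramphenicol/ampicillin LB agar as control and two on chloramphenicol/ampicillin/kanamycin with 0.1 mM IPTG.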
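Also: IS621 recombinase and bridge RNA in Escherichia coli cells.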

Sequence | recombinant barcode read abundance (log10)
GGTGACCCTTGGGTTCTAACCTGTTGCGG (site GGTCACCCTCC) | 0.224
GGTGACCCTTGGGTTCTAACCTGTTGCGG (site GGTGACCCTCC) | 2.73
GGTGACCCTTGGGTTCTAACCTGTTGCGG (site GGTTACCCTCC) | 0.33
GGTGCTCCTTGGGTTCTAACCTGTTGCTT (site ATTGCTCCTAA) | 0.135
GGTGCTCCTTGGGTTCTAACCTGTTGCTT (site GGTGCTCCTAA) | 0.0711
GGTGGGTCTTGGGTTCTAACCTGTTGCTT (site GGTGGGTCTAA) | 1.9
GGTGGGTCTTGGGTTCTAACCTGTTGCTT (site GGTGGGTCTAC) | 0.663
GGTGGGTCTTGGGTTCTAACCTGTTGCTT (site GGTGGGTCTAG) | 0.929
GGTGGGTCTTGGGTTCTAACCTGTTGCTT (site GGTGGGTCTAT) | 1.69
GGTTAGCCTTGGGTTCTAACCTGTTGCCT (site GGTTAGCCTAG) | 0.579
GGTTAGCCTTGGGTTCTAACCTGTTGCCT (site TGTTAGCCTTG) | 0.0783
GGTTATCCTTGGGTTCTAACCTGTTGCGG (site GGTTATCCTCC) | 1.17
GGTTATCCTTGGGTTCTAACCTGTTGCGG (site TTACGCTCTTA) | 0.0896
GGTTCACCTTGGGTTCTAACCTGTTGCAG (site GGTTCACCTCT) | 1.05
GGTTCACCTTGGGTTCTAACCTGTTGCAG (site GGTTGACCTAT) | 0.0489
GGTTGAACTTGGGTTCTAACCTGTTGCAT (site GCTTGAACTAA) | 0.128
GGTTGAACTTGGGTTCTAACCTGTTGCAT (site GGTTGAACTAT) | 0.0521
GGTTGCACTTGGGTTCTAACCTGTTGCCT (site AGTTGCTCTAG) | 0.189
GGTTGCACTTGGGTTCTAACCTGTTGCCT (site GGTTGCACTAG) | 0.4
GTAAACTCTTGGGTTCTAACCTGTTGCCT (site GTAAACTCTAG) | 1.98
GTAAACTCTTGGGTTCTAACCTGTTGCCT (site GTCAACTCTAG) | 0.0684
GTAAACTCTTGGGTTCTAACCTGTTGCCT (site GTGAACTCTAG) | 0.0821
GTAAACTCTTGGGTTCTAACCTGTTGCCT (site GTTAACTCTAG) | 0.427
GTAAAGTCTTGGGTTCTAACCTGTTGCCA (site CTAAAGTCTTG) | 0.0579
GTAAAGTCTTGGGTTCTAACCTGTTGCCA (site GTAAAGTCTTG) | 0.276
GTAAATCCTTGGGTTCTAACCTGTTGCCT (site ATAAATCCTAG) | 0.141

Sequence | recombinant barcode read abundance (log10)
GTAAATCCTTGGGTTCTAACCTGTTGCCT (site CTAAATCCTAG) | 0.222
GTAAATCCTTGGGTTCTAACCTGTTGCCT (site GTAAATCCTAG) | 1.01
GTAAATCCTTGGGTTCTAACCTGTTGCCT (site TTAAATCCTAG) | 0.132
GTAAATGCTTGGGTTCTAACCTGTTGCCT (site GTAAATGCTAG) | 1.36
GTAAATGCTTGGGTTCTAACCTGTTGCCT (site GTAACTGCTAG) | 0.0397
GTAAATGCTTGGGTTCTAACCTGTTGCCT (site GTAAGTGCTAG) | 0.0927
GTAAATGCTTGGGTTCTAACCTGTTGCCT (site GTAATTGCTAG) | 0.0782
GTAACCGCTTGGGTTCTAACCTGTTGCCT (site GTAACCGCTAG) | 1.64
GTAACCGCTTGGGTTCTAACCTGTTGCCT (site GTCACCGCTAG) | 0.228
GTAACCGCTTGGGTTCTAACCTGTTGCCT (site GTGACCGCTAG) | 0.115
GTAACCGCTTGGGTTCTAACCTGTTGCCT (site GTTACCGCTAG) | 0.432
GTAACCTCTTGGGTTCTAACCTGTTGCCA (site GTAACCTCTAG) | 0.904
GTAACCTCTTGGGTTCTAACCTGTTGCCA (site GTAACCTCTCG) | 0
GTAACCTCTTGGGTTCTAACCTGTTGCCA (site GTAACCTCTGG) | 0.0508
GTAACCTCTTGGGTTCTAACCTGTTGCCA (site GTAACCTCTTG) | 0.983
GTAACCTCTTGGGTTCTAACCTGTTGCCG (site GTAACCTCTAG) | 0.861
GTAACCTCTTGGGTTCTAACCTGTTGCCG (site GTAACCTCTCG) | 1.48
GTAACCTCTTGGGTTCTAACCTGTTGCCG (site GTAACCTCTGG) | 0.0296
GTAACCTCTTGGGTTCTAACCTGTTGCCG (site GTAACCTCTTG) | 0.0357
GTAAGATCTTGGGTTCTAACCTGTTGCAC (site AGGCCCGCTCC) | 0.0896
GTAAGATCTTGGGTTCTAACCTGTTGCAC (site GTAAGATCTGT) | 2.12
GTAAGTACTTGGGTTCTAACCTGTTGCTT (site GTAAGAACTAA) | 0.169
GTAAGTACTTGGGTTCTAACCTGTTGCTT (site GTAAGCACTAA) | 0.233
GTAAGTACTTGGGTTCTAACCTGTTGCTT (site GTAAGGACTAA) | 0.159
GTAAGTACTTGGGTTCTAACCTGTTGCTT (site GTAAGTACTAA) | 0.221
GTAAGTCCTTGGGTTCTAACCTGTTGCGA (site GTAAGTCCTTC) | 2.14

Sequence | recombinant barcode read abundance (log10)
GTAAGTCCTTGGGTTCTAACCTGTTGCGA (site GTGAGTCCTCC) | 0.0113
GTAAGTGCTTGGGTTCTAACCTGTTGCCT (site GTAAATGCTAG) | 0.0588
GTAAGTGCTTGGGTTCTAACCTGTTGCCT (site GTAACTGCTAG) | 0.0692
GTAAGTGCTTGGGTTCTAACCTGTTGCCT (site GTAAGTGCTAG) | 1.28
GTAAGTGCTTGGGTTCTAACCTGTTGCCT (site GTAATTGCTAG) | 0.187
GTAATGACTTGGGTTCTAACCTGTTGCCT (site GAAATGACTAG) | 0.403
GTAATGACTTGGGTTCTAACCTGTTGCCT (site GCAATGACTAG) | 0.194
GTAATGACTTGGGTTCTAACCTGTTGCCT (site GGAATGACTAG) | 0.105
GTAATGACTTGGGTTCTAACCTGTTGCCT (site GTAATGACTAG) | 1.6
GTAATGTCTTGGGTTCTAACCTGTTGCCT (site GAAATGTCTAG) | 0.284
GTAATGTCTTGGGTTCTAACCTGTTGCCT (site GCAATGTCTAG) | 0.289
GTAATGTCTTGGGTTCTAACCTGTTGCCT (site GGAATGTCTAG) | 0.112
GTAATGTCTTGGGTTCTAACCTGTTGCCT (site GTAATGTCTAG) | 2.04
GTACAATCTTGGGTTCTAACCTGTTGCCT (site ATACAATCTAG) | 0.947
GTACAATCTTGGGTTCTAACCTGTTGCCT (site CTACAATCTAG) | 0.339
GTACAATCTTGGGTTCTAACCTGTTGCCT (site GTACAATCTAG) | 1.43
GTACAATCTTGGGTTCTAACCTGTTGCCT (site TTACAATCTAG) | 0.371
GTACCTACTTGGGTTCTAACCTGTTGCTA (site CGACCTACTTA) | 0.0562
GTACCTACTTGGGTTCTAACCTGTTGCTA (site GTACCTACTTA) | 1.33
GTACGAGCTTGGGTTCTAACCTGTTGCCG (site GTACGAGCTCG) | 0.848
GTACGAGCTTGGGTTCTAACCTGTTGCCG (site GTGTGAGCTCG) | 0.38
GTACGTCCTTGGGTTCTAACCTGTTGCAT (site GTACGTCCTAA) | 0.133
GTACGTCCTTGGGTTCTAACCTGTTGCAT (site GTACGTCCTAC) | 1.01
GTACGTCCTTGGGTTCTAACCTGTTGCAT (site GTACGTCCTAG) | 0.52
GTACGTCCTTGGGTTCTAACCTGTTGCAT (site GTACGTCCTAT) | 1

— the supplement of paper PMC11208160
